# Reference: patent publication US20220152174A1, “Cancer Antigen Peptide” (National University Corporation Asahikawa Medical University, priority 2018, published 2022)
# Columns and labels:
# [1] = system: DR53-positive cancer cell lines (WiDr, Lu65, and Calu1); settings: cancer cells pretreated with 10 μM 5-AZA and 500 U/mL IFN-γ for 3 days; co-culture 24 hours
# Experimental: In order to study the reactivity of SYCP3-A peptide-specific CD4-positive T-cells toward cells of cancer cell lines, DR53-positive cancer cell lines (WiDr, Lu65, and Calu1) were used. The cancer cells were cultured in 6-well culture plates for 3 days using 2 mL of the complete medium containing 10 μM 5-AZA and 500 U/mL IFN-γ (Immunomax-γ for injection 50, Shionogi), which can induce expression of HLA class II molecules on the surfaces of cancer cells. The culture plates were thoroughly washed with PBS, 1 mL of 5 mM EDTA (ethylenediaminetetraacetic acid, nacalai tesque 14347-21) was added to suspend the cells, and the cells were recovered. In the same manner as in Test 8, 1×10^4 cells of each cell line and 5×10^4 CD4-positive T-cells were co-cultured in 96-well flat bottom culture plates using 200 μL of the culture medium for human cells. […] After 24 hours 100 μL of the culture supernatants were collected from each well, and the IFN-γ concentrations were determined using the ELISA kit.
# [2] = system: lung cancer cell line A549; assay: DNA microarray gene expression after 5-AZA treatment; format: cell-based, human
# Experimental: Cells of lung cancer cell line A549 were treated with 5-AZA (10 μM) for 3 days and the RNAs were extracted. Gene expression levels were measured using DNA microarrays. The criteria for identifying the candidate genes were that the expression level was close to 0 in the non-treated cells and increased by 30 times or more in the 5-AZA-treated cells. Some candidate genes were found, including SYCP3 (untreated: 3.0, 5-AZA treated: 340.9, fold-change: […]), SPESP1 (untreated: 1.7, 5-AZA treated: 65.3, fold-change: […]), and DAZL1 (untreated: 2.8, 5-AZA treated: 341.3, fold-change: 123.6).
# [3] = system: SPESP1 gene expression in EBC1 or Lu65 tumor tissues; assay: SPESP1 gene expression in tumor tissues of nude mice given 5-AZA; format: in vivo, mouse; settings: 5-AZA i.p.; tumors Day 25; vs PBS alone
# Experimental: Similarly, nude mice were intradermally injected with cells of lung cancer cell line EBC1 (5×10^5 cells) or Lu65 (5×10^5 cells), and 5-AZA or PBS (control) was intraperitoneally administered. The RNAs were extracted from the tumor tissues collected on Day 25, and the gene expression levels of SPESP1 and GAPDH were analyzed by real-time PCR.
# [4] = system: SYCP3 protein in EBC1 and Lu65; assay: SYCP3 protein by Western blotting; format: cell-based, human; settings: EBC1 and Lu65 treated with 5-AZA
# Experimental: The amount of SYCP3 protein in EBC1 and Lu65 treated with 5-AZA was analyzed by Western blotting. An anti-SYCP3 antibody (Mouse anti-SCP3, BD Bioscience 611230) diluted at 1:200 was used as the primary antibody. Upregulation of SYCP3 by the 5-AZA treatment was also observed at the protein level.
# [5] = system: lung cancer cell line Lu65; assay: Tumor growth in nude mice bearing Lu65; format: in vivo, mouse; settings: BALB/c nude mice, 5-AZA 150 nmol/g i.p. Days 7, 12, 17, 22, Th cells i.v. Days 13, 20, 27
# Experimental: BALB/c nude mice (10 to 14 weeks old, CHARLES RIVER LABORATORIES JAPAN) were intradermally injected with 3×10^6 cells of lung cancer cell line Lu65 using Myjector, and on Days 7, 12, 17, and 22, 200 μL of PBS containing 5-AZA (150 nmol/g of mouse body weight) was intraperitoneally administered using Myjector. To the control mice, 200 μL of PBS was intraperitoneally administered. On Days 13, 20, and 27, 200 μL of SYCP3-specific human Th cells (3 to 5×10^6 cells) were administered by tail vein administration. To the control mice, 200 μL of PBS was administered by tail vein administration. The tumor surface areas were measured over time.
# [6] = system: mouse DAZL1 gene expression in WEHI-3; assay: DAZL1 gene expression by real-time PCR in 5-AZA-treated WEHI-3; format: cell-based
# Experimental: Cells of cancer cell lines (lung cancer cell line EBC1, lung cancer cell line Lu65, colon cancer cell line HT-29, and oral squamous cell carcinoma cell line SAS) were cultured in the complete medium (RPMI 1640 medium (nacalai tesque 30264-56) with 100 U/mL penicillin (Meiji Seika) and […] streptomycin (Meiji Seika), added with 10% fetal bovine serum (biosera FB-1365/500) which had been […] at 56° C. for 30 minutes) containing 5-AZA (10 μM) at the density of 2×10^5 cells/well in 6-well plates (Falcon 353046) in an incubator (SANYO) set at 37° C., 5% CO2, and 95% humidity for 3 days. The same incubator was used for all cell cultures in the following tests. The cells were washed with 2 mL of a phosphate-buffered saline (PBS, KANTO CHEMICAL CO., INC. 73111). The RNAs were extracted with RNeasy Mini Kit (Qiagen 74106), and the cDNAs were synthesized by using PrimeScript 1st strand cDNA Synthesis Kit (Takara Bio 6110A), and the gene expression levels of GAPDH (Applied Biosystems Hs02786624_g1) and SYCP3 (Applied Biosystems Hs00538146_m1) were analyzed by real-time PCR using LightCycler480 (Roche). […]
# Similarly, cells of mouse leukemia cell line WEHI-3 (Balb/c) was cultured in the presence of 5-AZA, and the gene expression levels of mouse GAPDH (Applied Biosystems Mm99999915_g1) and mouse DAZL1 (Applied Biosystems Mm01273546_m1) were analyzed.
# [7] = system: SPESP1 gene expression in SW839, 5637, LC2/Ad, EBC1, HT-29, Lu65, SAS; assay: SPESP1 gene expression by real-time PCR in 5-AZA-treated cancer cell lines; format: cell-based, human; settings: all tested cell lines
# Experimental: Cells of cancer cell lines (lung cancer cell line EBC1, lung cancer cell line Lu65, colon cancer cell line HT-29, and oral squamous cell carcinoma cell line SAS) were cultured in the complete medium (RPMI 1640 medium (nacalai tesque 30264-56) with 100 U/mL penicillin (Meiji Seika) and 100 μg/L streptomycin (Meiji Seika), added with 10% fetal bovine serum (biosera FB-1365/500) which had been immobilized at 56° C. for 30 minutes) containing 5-AZA (10 μM) at the density of 2×10^5 cells/well in 6-well plates (Falcon 353046) in an incubator (SANYO) set at 37° C., 5% CO2, and 95% humidity for 3 days. […] The RNAs were extracted with RNeasy Mini Kit (Qiagen 74106), and the cDNAs were synthesized by using PrimeScript 1st strand cDNA Synthesis Kit (Takara Bio 6110A), and the gene expression levels of GAPDH (Applied Biosystems Hs02786624_g1) and SYCP3 (Applied Biosystems Hs00538146_m1) were analyzed by real-time PCR using LightCycler480 (Roche). […]
# Similarly, cells of renal cancer cell line SW839, bladder cancer cell line 5637, lung adenocarcinoma cell line LC2/Ad, lung cancer cell line EBC1, colon cancer cell line HT-29, lung cancer cell line Lu65, and oral squamous cell carcinoma cell line SAS were cultured in the presence of 5-AZA, and the gene expression levels of GAPDH and SPESP1 (Applied Biosystems Hs00377364_m1) were analyzed.
# [8] = system: DAZL1 protein in E0771 and C1498; assay: DAZL1 protein by Western blotting in mouse cancer cell lines; format: cell-based; settings: 5-AZA 10 μM
# Experimental: Cells of mouse cancer cell lines (E0771:C57BL/6 mouse breast cancer cell line and C1498:C57BL/6 mouse acute myeloid leukemia cell line) were treated with 5-AZA (10 μM), and the amount of DAZL1 protein was analyzed by Western blotting.
# [9] = system: SYCP3 gene expression in HT-29 or WiDr tumor tissues; assay: SYCP3 gene expression in tumor tissues of nude mice given 5-AZA; format: in vivo, mouse; settings: 5-AZA 1.6 μg/g i.p. Days 5, 10, 15, 20; tumors Day 25; vs PBS alone
# Experimental: To the control mice, 200 μL of PBS was intraperitoneally administered.
# [10] = system: SYCP3 gene expression in EBC1, Lu65, HT-29, SAS; assay: SYCP3 gene expression by real-time PCR in 5-AZA-treated cancer cell lines; format: cell-based, human; settings: 5-AZA 10 μM, 3 days; all tested cell lines (EBC1, Lu65, HT-29, SAS)
# Experimental: Cells of cancer cell lines (lung cancer cell line EBC1, lung cancer cell line Lu65, colon cancer cell line HT-29, and oral squamous cell carcinoma cell line SAS) were cultured in the complete medium (RPMI 1640 medium (nacalai tesque 30264-56) with 100 U/mL penicillin (Meiji Seika) and […] streptomycin (Meiji Seika), added with 10% fetal bovine serum (biosera FB-1365/500) which had been […] at 56° C. for 30 minutes) containing 5-AZA (10 μM) at the density of 2×10^5 cells/well in 6-well plates (Falcon 353046) in an incubator (SANYO) set at 37° C., 5% CO2, and 95% humidity for 3 days. The same incubator was used for all cell cultures in the following tests. The cells were washed with 2 mL of a phosphate-buffered saline (PBS, KANTO CHEMICAL CO., INC. 73111). The RNAs were extracted with RNeasy Mini Kit (Qiagen 74106), and the cDNAs were synthesized by using PrimeScript 1st strand cDNA Synthesis Kit (Takara Bio 6110A), and the gene expression levels of GAPDH (Applied Biosystems Hs02786624_g1) and SYCP3 (Applied Biosystems Hs00538146_m1) were analyzed by real-time PCR using LightCycler480 (Roche). Each step was carried out in accordance with the description of the package inserts attached to each reagent.
# [11] = A549, 5-AZA 10 μM, 3 days, DNA microarray
# [12] = A549, 5-AZA treated vs untreated
structure (smiles),measurement,setting,value
"Nc1ncn([C@H]2C[C@H](O)[C@@H](CO)O2)c(=O)n1 [5-AZA, 5-aza-2′-deoxycytidine]",IFN-γ production of SYCP3-A-specific CD4-positive T-cells toward cancer cells,[1],increased the IFN-γ production
same,"DAZL1 gene expression level, 5-AZA treated",[2]; [11],341.3
same,"SPESP1 gene expression level, 5-AZA treated",[2]; [11],65.3
same,"SYCP3 gene expression level, 5-AZA treated",[2]; [11],340.9
same,DAZL1 fold-change,[2]; [12],123.6
same,SPESP1 fold-change,[2]; [12],38.8
same,SYCP3 fold-change,[2]; [12],112.3
same,SPESP1 gene expression in tumor tissues,[3],upregulated
same,amount of SYCP3 protein,[4],Upregulation
same,tumor growth (tumor surface area),[5],No effect
same,DAZL1 gene expression level,[6],upregulated
same,SPESP1 gene expression level,[7],upregulated
same,amount of DAZL1 protein,[8],upregulated
same,SYCP3 gene expression in tumor tissues,[9],upregulated
same,SYCP3 gene expression level,[10],upregulated
